These results are taken from US20050214744A1, “New mutational profiles in hiv-1 reverse transcriptase correlated with phenotypic drug resistance” (priority 2002, published 2005).

The test system of test [1] is HIV-1/LAI. Put plainly: Antiviral activity against wild-type strain in acutely infected MT4 cells. The test is classed as cell-based. To be noted: for EC50: Human immunodeficiency virus 1, table prints no unit (EC50 in μM), read-out: Median EC50. The procedure: (§1) Determination of the antiviral activity of a compound was done as described in Pauwels R. et al. (J Virol Methods 1988; 20(4):309-21). Various concentrations of the test compounds were brought into each well of a flat-bottom microtiter plate. Subsequently, HIV and MT4 cells were added to a final concentration of 200-250 50% cell culture infectious doses (CCID50)/well and 30,000 cells/well, respectively. After 5 days of incubation (37° C., 5% CO2), the cytopathic effect of the replicating virus was determined by the tetrazolium colorimetric MTT method. The dose protecting 50% of the cells from virus cytopathic effect was defined as the EC50, while the dose achieving 90% protection was defined as the EC90. Reporter gene assay The reporter gene assay used MT4-LTR-EGFP cells. Upon infection by HIV-1, the expression of the viral tat product increases transcription from the HIV-1 LTR promoter, leading to high-level expression of the reporter gene product. The assay procedure was similar to the CPE assay, except for the end reading of the assay, which was performed on day 3 by measuring the relative fluorescence of treated cultures and comparing this with the relative fluorescence of untreated cultures. The EC50 or the EC90 of a compound was defined as the concentration that inhibited the relative fluorescence by 50% or 90% respectively.
(§2) Cells are infected at a high MOI (such as 1-50 CCID50/cell), corresponding to >10^9 viral RNA copies/ml. These experiments have been designed to mimic the quasi-species variability that is observed in HIV infected individuals where 10^9 to 10^10 new viruses are produced daily with a mutation rate of 10^−4 to 10^−5. The infected MT4-LTR-EGFP cells are treated with inhibitors at 40, 200 nM, 1 μM and higher for a maximum of 30 days. The cultures are sub-cultivated and scored on virus-induced fluorescence and cytopathicity every 3-4 days. If full virus breakthrough (100% CPE) is observed the supernatants was collected and stored (new virus strain). If no full CPE was observed the cells were sub-cultivated and further grown in the presence of the same concentration compound till full virus breakthrough, with a maximum of 30 days. From the emerging virus populations a virus stock was grown in the absence of compounds and titrated. The sensitivities of the isolated strains to HIV-1 RT inhibitors were determined and the strains were genotyped.
(§3) In vitro drug selection experiments starting from wild-type HIV-1/LAI under pressure of compound 1 have been performed.

Test [2] has as its system SM26 (K103N, Y181C). As to the kind of experiment: Antiviral activity against starting strain SM26 in acutely infected MT4 cells. To be noted: for EC50: Human immunodeficiency virus 1, no selecting compound, unit inferred, read-out: Median EC50; for FC (fold change in resistance, ratio of EC50 vs wild type): no selecting compound. In kind it is cell-based, HIV-1. The procedure: as §1, §2, §3

Test [3] concerns SM26-derived strain K103N, Y181C, E194E/K. Put plainly: Antiviral activity against strain selected with compound 1 0.040 μM, acutely infected MT4 cells. The test is classed as cell-based, HIV-1. To be noted: SM26 selected with Compound 1 0.040 μM, breakthrough day 7, additional E194E/K; for EC50: Human immunodeficiency virus 1, MT4, 168 h, unit inferred, read-out: Median EC50. As to the method: as §1, §2, §3

Test [4] relates to SM26-derived strain K103N, Y181C, L100I, V189V/I, E194G/E. Put plainly: Antiviral activity against strain selected with compound 1 0.200 μM (day 7), acutely infected MT4 cells. The test is classed as cell-based, HIV-1. To be noted: SM26 selected with Compound 1 0.200 μM, breakthrough day 7, additional L100I; for EC50: Human immunodeficiency virus 1, MT4, 168 h, unit inferred, read-out: Median EC50. As to the method: as §1, §2, §3

Test [5] has as its system SM26-derived strain K103N, Y181C, L100I, E194G. Put plainly: Antiviral activity against strain selected with compound 1 1.000 μM (day 11), acutely infected MT4 cells. The test is classed as cell-based, HIV-1. To be noted: SM26 selected with Compound 1 1.000 μM, breakthrough day 11, additional L100I; for EC50: Human immunodeficiency virus 1, MT4, 264 h, unit inferred, read-out: Median EC50. As to the method: as §1, §2, §3

Test [6] has as its system SM26-derived strain K103N, Y181C, L100I, V189V/I, E194G/E, R356R/K. As to the kind of experiment: Antiviral activity against strain selected with compound 1 0.200 μM (day 9), acutely infected MT4 cells. To be noted: SM26 selected with Compound 1 0.200 μM, breakthrough day 9, additional L100I; for EC50: Human immunodeficiency virus 1, MT4, 216 h, unit inferred, read-out: Median EC50. The test is classed as cell-based, HIV-1. The procedure: as §1, §2, §3

Test [7] concerns SM26-derived strain K103N, Y181C, L100I, V189I, E194G. As to the kind of experiment: Antiviral activity against strain selected with compound 1 1.000 μM (day 13), acutely infected MT4 cells. Particulars: SM26 selected with Compound 1 1.000 μM, breakthrough day 13, additional L100I; for EC50: Human immunodeficiency virus 1, MT4, 312 h, unit inferred, read-out: Median EC50. The test is classed as cell-based, HIV-1. As to the method:
as §1, §2, §3

The test system of test [8] is SM26 (K103N, Y181C). As to the kind of experiment: In vitro selection of resistant strains at high MOI (virus breakthrough). The test is classed as cell-based, HIV-1.

As for `Cc1cc(C#N)cc(C)c1Oc1nc(Nc2ccc(C#N)cc2)nc(N)c1Br` [Compound 1, Benzonitrile, 4-[[6-amino-5-bromo-2-[(4-cyanophenyl)-amino]-4-pyrimidinyl]oxy]-3,5-dimethyl-], the “FC (fold change in resistance, ratio of EC50 vs wild type)” value worked out at 1 in test [1]; 4 in test [2]; 6 in test [3]; 106 in test [4]; 477 in test [5]; 19 in test [6]. Also, the “FC (fold change in resistance, ratio of EC50 vs wild type)” value in test [7] is on record as 187. Besides, the EC50 (usually the midpoint of the concentration-response curve) in test [1] worked out at 0.0014 µM; in test [2], 0.005 µM; in test [3], 0.0078 µM; in test [4], 0.149 µM; in test [5] it was 0.668 µM; in test [6], 0.0268 µM. Besides, the EC50 in test [7] was found to be 0.261 µM. The Days to breakthrough entry in test [8] (0.040 μM, selected E194E/K) is reported as “day 7”; in test [8] (0.200 μM (first culture), selected L100I, V189V/I, E194G/E) it was “day 7”; in test [8] (0.200 μM (second culture), selected L100I, V189V/I, E194G/E, R356R/K) it was “day 9”; in test [8] (1.000 μM (first culture), selected L100I, E194G) it was “day 11”; in test [8] (1.000 μM (second culture), selected L100I, V189I, E194G), “day 13”.

As to `O=C1Nc2ccc(Cl)cc2[C@@](C#CC2CC2)(C(F)(F)F)O1` [Efavirenz], the “FC (fold change in resistance, ratio of EC50 vs wild type)” value was 1 in test [1]; 37 in test [2]; 33 in test [3]; 2.747 in test [4]; 57 in test [6]; 3.595 in test [7]. Further, the EC50 turned out to be 0.001 µM in test [1]; 0.0367 µM in test [2]; 0.0327 µM in test [3]; 2.75 µM in test [4]; 6.73 µM in test [5]; 0.0565 µM in test [6]. Further, the EC50 in test [7] stood at 3.6 µM.

`Cc1ccnc2c1NC(=O)c1cccnc1N2C1CC1` [Nevirapine]: the “FC (fold change in resistance, ratio of EC50 vs wild type)” value in test [1] is 1; in test [2], above 131; in test [3] it was above 131; in test [4], above 131; in test [5], above 131; in test [6] it was above 131. For the same compound, the “FC (fold change in resistance, ratio of EC50 vs wild type)” value in test [7] is reported as above 131. The concentration for a half-maximal effect (EC50) was 0.0763 µM in test [1]; above 10 µM in test [2]; above 10 µM in test [3]; above 10 µM in test [4]; above 10 µM in test [5]; above 10 µM in test [6]. Also, the EC50 in test [7] is above 10 µM.
